Read-outs that look alike come from different tables or passages of the source. Marks after values point to notes of the source that are not given here.
What was measured:
[1] = Tissue distribution study in rabbits after oral Panax notoginseng extract with or without Borneol; format: in vivo, New Zealand rabbits; settings: New Zealand, rabbit; for Kp at 1 h: oral, Borneol combined with Panax notoginseng; for concentration at 0.5 h / concentration at 1 h / concentration at 3 h: po; for concentration at 3 h: 3 mL·kg^−1, 3.0 h
Protocol: (§1) Frozen plasma and tissue samples were thawed in a water bath at 37°C and were then vortexed followed by centrifuging at 5000 r·min^−1 for 5 min. An aliquot of 1.0 mL of the supernatant from each sample was loaded onto C18 Bond Elute Solid phase extraction (SPE) cartridges (1000 mg, 1 cc reservoir, Varian, Harbor City, CA, USA) pretreated with 2.0 mL hexane, isopropanol, methanol, and water, sequentially. The SPE cartridges were then washed with 1.0 mL water, 20% methanol/water solution, 40% methanol/water solution, and 60% methanol/water solution, sequentially. Finally, analytes were eluted twice with 1.0 mL of 70% methanol/water solution. The eluant was evaporated to dryness under nitrogen. The residues were then reconstituted in 1.0 mL mobile phase. An aliquot of 10 μL was injected into the LC-MS system.
One group of rabbits (n = 18) was orally administered a dose of 3.0 mL·kg^−1 Panax notoginseng extract, while another group of rabbits (n = 18) was orally given 3.0 mL·kg^−1 Panax notoginseng extract combined with Borneol. At 0.5, 1, and 3 h after administration, blood samples were collected from the central ear artery of six rabbits from each group, and the heart, liver, lung, kidney, and brain were immediately removed after animals were sacrificed by decapitation. An accurately weighed amount of tissue (1 g) was collected to be rinsed, dried, minced, and homogenized (400 r·min^−1) in normal saline (1.5 mL). All of the samples were stored at −70°C and were processed prior to analysis with the proposed method as described in Section 2.6.

[2] = Pharmacokinetics study in rabbits after oral Panax notoginseng extract with or without Borneol (plasma, SPE-HPLC-MS); format: in vivo, New Zealand rabbits; settings: for Cmax / Tmax / CL/F / half-life / AUC(0-inf) / AUC(0-t): New Zealand, rabbit, plasma; for CL/F: read-out: CL/F; for half-life: read-out: t 1/2β; for AUC(0-inf) / AUC(0-t): po
Protocol: Liquid chromatography was carried out on an Agilent 1100 HPLC system with an auto sampler, a quaternary pump and a vacuum degasser (Waldoboro, Frankfurt, Germany). Operations were controlled by Agilent Chemstation 4.2 software (Littleforts, Philadelphia, USA). Separations were achieved on a reversed-phase HPLC column (Zorbax SB-C18 150 × 2.1 mm, 5.0 μm particle size). A solution of acetonitrile and water (V : V, 20 : 80) with 0.1% (V : V) ammonium formate was used as the mobile phase. The flow rate was set at 0.3 mL·min^−1 and the column temperature was 25°C. Under these conditions, NGR1, GRg1, and GRe in plasma samples were separated efficiently without any interferences.
MS^n detection was performed on an Agilent SL trap MS system (Waldoboro, Frankfurt, Germany). The ion source-dependent (electrospray ionization) conditions were the same for all analyses with a spraying voltage of −4500 V in the negative ion mode. The pressure of the nebulizing gas (nitrogen) was set at 35 p.s.i. The flow rate of the drying gas (nitrogen) was set at 7.0 L·min^−1 with the temperature of 325°C. The collision gas (He) for the MS^n mode at trap was set at flow of 4 (instrument unit). The voltage of the capillary was set at 4000 V, and its end plate offset was −500 V. Scan range was from 500 to 1500 m/z.
as §1
Eighteen rabbits were randomly divided into three groups of 6 subjects and were orally given 3.0 mL·kg^−1 normal saline, 3.0 mL·kg^−1 Panax notoginseng extract, and 3.0 mL·kg^−1 Panax notoginseng extract combined with Borneol, respectively. Plasma samples were collected in heparinized tubes from the central ear artery at 0.0, 5.0, 10.0, 20.0, 30.0, 45.0, 60.0, 75.0, 90.0, 120.0, 180.0, 300.0 and 480.0 min after dose. After each sampling, the same volume of 0.9% saline solution was injected from the ear vein to compensate the loss of blood. The plasma obtained was frozen at −70°C for storage and was processed prior to analysis with the proposed method as described in Section 2.6.
Statistical analysis of the biological data was performed using the Student's t-test. The drug analysis system 2.0 (DAS 2.0, T.C.M., Shanghai, China) was used to calculate the pharmacokinetic parameters, such as the area under curve (AUC), the maximum plasma concentration (C max), the time needed to reach the maximum plasma concentration (t max) and the half-life of absorption, and distribution and elimination (t 1/2Ka, t 1/2α, t 1/2β).

[3] = oral 3.0 mL·kg^−1 Panax notoginseng extract
[4] = oral 3.0 mL·kg^−1 Panax notoginseng extract combined with Borneol

What does the source list for `CC(C)=CCC[C@](C)(O[C@@H]1O[C@H](CO)[C@@H](O)[C@H](O)[C@H]1O)[C@H]1CC[C@]2(C)[C@@H]1[C@H](O)C[C@@H]1[C@@]3(C)CC[C@H](O)C(C)(C)[C@@H]3[C@@H](O[C@@H]3O[C@H](CO)[C@@H](O)[C@H](O)[C@H]3O)C[C@]12C` [GRg1, ginsenoside Rg1]?
Kp at 1 h ([1]; brain, peak levels at 1.0 h, read-out: level in brain, fold higher than the plasma concentrations): 11.8; concentration at 0.5 h ([1]; brain, 3 mL·kg^−1, 0.5 h, oral Panax notoginseng with Borneol, read-out: Concentration in brain): 20600 ± 1360 ng/g; concentration at 0.5 h ([1]; brain, 3 mL·kg^−1, 0.5 h, oral Panax notoginseng, read-out: Concentration in brain): 750 ± 110 ng/g; concentration at 1 h ([1]; brain, 3 mL·kg^−1, 1.0 h, oral Panax notoginseng, read-out: Concentration in brain): 910 ± 890 ng/g; concentration at 3 h ([1]; brain, oral Panax notoginseng with Borneol, read-out: Concentration in brain): 17900 ± 2600 ng/g; concentration at 3 h ([1]; brain, oral Panax notoginseng, read-out: Concentration in brain): 570 ± 200 ng/g; concentration at 1 h ([1]; brain, 1.0 h, oral Panax notoginseng with Borneol, read-out: Concentration in brain): 25700 ± 2690 ng/g; Kp at 1 h ([1]; heart, peak levels at 1.0 h, read-out: level in heart, fold higher than the plasma concentrations): 12.4; concentration at 0.5 h ([1]; heart, 3 mL·kg^−1, 0.5 h, oral Panax notoginseng with Borneol, read-out: Concentration in heart): 22600 ± 360 ng/g; concentration at 0.5 h ([1]; heart, 3 mL·kg^−1, 0.5 h, oral Panax notoginseng, read-out: Concentration in heart): 2210 ± 760 ng/g; concentration at 1 h ([1]; heart, 3 mL·kg^−1, 1.0 h, oral Panax notoginseng, read-out: Concentration in heart): 2940 ± 240 ng/g; concentration at 3 h ([1]; heart, oral Panax notoginseng with Borneol, read-out: Concentration in heart): 19100 ± 1160 ng/g; concentration at 3 h ([1]; heart, oral Panax notoginseng, read-out: Concentration in heart): 1530 ± 450 ng/g; concentration at 1 h ([1]; heart, 1.0 h, oral Panax notoginseng with Borneol, read-out: Concentration in heart): 27000 ± 310 ng/g; Kp at 1 h ([1]; kidney, at 1.0 h, read-out: level in kidney, fold higher than the plasma concentrations): 7.77; concentration at 0.5 h ([1]; kidney, 3 mL·kg^−1, 0.5 h, oral Panax notoginseng with Borneol, read-out: Concentration in kidney): 27540 ± 170 ng/g; concentration at 0.5 h ([1]; kidney, 3 mL·kg^−1, 0.5 h, oral Panax notoginseng, read-out: Concentration in kidney): 4050 ± 260 ng/g; concentration at 1 h ([1]; kidney, 3 mL·kg^−1, 1.0 h, oral Panax notoginseng, read-out: Concentration in kidney): 3670 ± 380 ng/g; concentration at 3 h ([1]; kidney, oral Panax notoginseng with Borneol, read-out: Concentration in kidney): 10200 ± 2770 ng/g; concentration at 3 h ([1]; kidney, oral Panax notoginseng, read-out: Concentration in kidney): 3030 ± 230 ng/g; concentration at 1 h ([1]; kidney, 1.0 h, oral Panax notoginseng with Borneol, read-out: Concentration in kidney): 16900 ± 810 ng/g; Kp at 1 h ([1]; liver, peak levels at 1.0 h, read-out: level in liver, fold higher than the plasma concentrations): 27.1; concentration at 0.5 h ([1]; liver, 3 mL·kg^−1, 0.5 h, oral Panax notoginseng with Borneol, read-out: Concentration in liver): 50100 ± 1950 ng/g; concentration at 0.5 h ([1]; liver, 3 mL·kg^−1, 0.5 h, oral Panax notoginseng, read-out: Concentration in liver): 8480 ± 530 ng/g; concentration at 1 h ([1]; liver, 3 mL·kg^−1, 1.0 h, oral Panax notoginseng, read-out: Concentration in liver): 8850 ± 510 ng/g; concentration at 3 h ([1]; liver, oral Panax notoginseng with Borneol, read-out: Concentration in liver): 37800 ± 3430 ng/g; concentration at 3 h ([1]; liver, oral Panax notoginseng, read-out: Concentration in liver): 6180 ± 590 ng/g; concentration at 1 h ([1]; liver, 1.0 h, oral Panax notoginseng with Borneol, read-out: Concentration in liver): 59000 ± 3740 ng/g; Kp at 1 h ([1]; lung, peak levels at 1.0 h, read-out: level in lung, fold higher than the plasma concentrations): 8.17; concentration at 0.5 h ([1]; lung, 3 mL·kg^−1, 0.5 h, oral Panax notoginseng with Borneol, read-out: Concentration in lung): 15100 ± 3240 ng/g; concentration at 0.5 h ([1]; lung, 3 mL·kg^−1, 0.5 h, oral Panax notoginseng, read-out: Concentration in lung): 14300 ± 430 ng/g; concentration at 1 h ([1]; lung, 3 mL·kg^−1, 1.0 h, oral Panax notoginseng, read-out: Concentration in lung): 15300 ± 640 ng/g; concentration at 3 h ([1]; lung, oral Panax notoginseng with Borneol, read-out: Concentration in lung): 12300 ± 1460 ng/g; concentration at 3 h ([1]; lung, oral Panax notoginseng, read-out: Concentration in lung): 11900 ± 710 ng/g; concentration at 1 h ([1]; lung, 1.0 h, oral Panax notoginseng with Borneol, read-out: Concentration in lung): 17800 ± 1250 ng/g; concentration at 0.5 h ([1]; plasma, 3 mL·kg^−1, 0.5 h, oral Panax notoginseng, read-out: Concentration in plasma): 1970 ± 160 ng/mL; concentration at 1 h ([1]; plasma, 3 mL·kg^−1, 1.0 h, oral Panax notoginseng, read-out: Concentration in plasma): 1990 ± 60 ng/mL; concentration at 3 h ([1]; plasma, oral Panax notoginseng with Borneol, read-out: Concentration in plasma): 920 ± 10 ng/mL; concentration at 3 h ([1]; plasma, oral Panax notoginseng, read-out: Concentration in plasma): 980 ± 10 ng/mL; concentration at 0.5 h ([1]; plasma, 0.5 h, oral Panax notoginseng with Borneol, read-out: Concentration in plasma): 2870 ± 60 ng/mL; concentration at 1 h ([1]; plasma, 1.0 h, oral Panax notoginseng with Borneol, read-out: Concentration in plasma): 2180 ± 90 ng/mL; Cmax [2, 3]: 2360 ± 150 ng/mL; Tmax [2, 3]: 30 min; Cmax [2, 4]: 2870 ± 340 ng/mL; Tmax [2, 4]: 30 min; CL/F [2, 4]: 119 ± 40 mL/min/kg; half-life [2, 4]: 69.3 ± 10.7 min; CL/F [2, 3]: 123 ± 67 mL/min/kg; half-life [2, 3]: 69.3 ± 12 min; AUC(0-inf) [2, 3]: 10900 ng·h/mL; AUC(0-t) [2, 3]: 8250 ng·h/mL; AUC(0-inf) [2, 4]: 27900 ng·h/mL; AUC(0-t) [2, 4]: 9090 ng·h/mL; K 10 [2, 3]: 0.005 ± 0.001 min⁻¹; K 12 [2, 3]: 0.011 ± 0.003 min⁻¹; K 21 [2, 3]: 0.012 ± 0.003 min⁻¹; K a [2, 3]: 0.039 ± 0.004 min⁻¹; T lag [2, 3]: 0 ± 0 min; V/F [2, 3]: 24.5 ± 4.5 L/kg; t 1/2Ka [2, 3]: 17.8 ± 2.4 min; t 1/2α [2, 3]: 38.5 ± 2.5 min; α [2, 3]: 0.018 ± 0.005 min⁻¹; β [2, 3]: 0.010 ± 0.007 min⁻¹; K 10 [2, 4]: 0.003 ± 0.00 min⁻¹; K 12 [2, 4]: 0.025 ± 0.005** min^−1; K 21 [2, 4]: 0.013 ± 0.001 min⁻¹; K a [2, 4]: 0.051 ± 0.010* min^−1; T lag [2, 4]: 1.25 ± 0.34 min; V/F [2, 4]: 35.9 ± 8.7 L/kg; t 1/2Ka [2, 4]: 13.5 ± 4.6 min; t 1/2α [2, 4]: 22.3 ± 3.1 min; α [2, 4]: 0.031 ± 0.011 min⁻¹; β [2, 4]: 0.010 ± 0.001 min⁻¹
